Reference: patent publication US8673914B2, “Use of phosphodiesterase inhibitors for treating multidrug resistance” (St. John's University, priority 2011, dated 2014)
Read-outs that look alike come from different tables or passages of the source.

Assays:
ABCG2-482-R2 (ABCG2) = assay: MTT cytotoxicity/reversal assay (Example 1); conditions: +10 μM reversal agent
Protocol: (§1) The KB-C2 and KB-3-1 were kindly provided by Dr. Akiyama (Kagoshima University, Japan). HEK293-pcDNA3.1 and wild-type HEK/ABCG2 transfected cells were established by selection with G418 after transfecting HEK293 with either (1) empty pcDNA3.1 vector or (2) pcDNA3.1 vector containing full length of ABCG2 coding arginine (R) at amino acid position 482, and were then cultured in a medium with 2 mg/ml of G418 (ABCG2-482-R2 cells). Similarly, the HEK/MRP1 (ABCC1) and HEK/ABCB1 cells were generated by transfecting the HEK293 cells with either the MRP1 expression vector or the ABCB1 expression vector. All of the cell lines were grown in Dulbecco's modified Eagle's medium (DMEM) supplemented with 10% bovine serum, 100 units/ml penicillin, and […] streptomycin in a humidified incubator containing 5% CO2 at 37° C.
(§2) The MTT assay was used to assess cytotoxicity. The cultured cells were harvested with trypsin and resuspended in a final concentration of 4×10^3 cells/well for KB-3-1; 7.5×10^3 cells/well for KB-C2; and 8×10^3 for all of the other cell lines used in this study. Cells were seeded evenly in 96-well multiplates. […] After 68 h of incubation, 20 μl of the MTT solution (4 mg/ml) was added to each well, and the plate was further incubated for 4 h at 37° C., allowing viable cells to convert the yellow-colored MTT into dark-blue formazan crystals. Subsequently, the medium was discarded, and 100 μl of DMSO was added into each well to dissolve the formazan crystals, generating purple color. The absorbance was determined at 570 nm by an OPSYS Microplate Reader from DYNEX Technologies, Inc. (Chantilly, Va.). […] The degree of the reversal of multidrug resistance (MDR) was calculated by dividing the IC50 of an anticancer drug, e.g., an antineoplastic or chemotherapeutic drug (agent, compound), in a cell type in the absence of a reversal agent by the IC50 of the anticancer drug in the same cell type in the presence of the reversal agent. The IC50 values were calculated from survival curves using the Bliss method.

parental cells = assay: [^3H]-mitoxantrone accumulation; assay type: cell-based
Protocol: (§3) After washing 3 times with ice-cold PBS, the cells were trypsinized and lysed in 10 mM lysis buffer (pH 7.4, containing 1% Triton X-100 and 0.2% SDS). Each sample was placed in scintillation fluid and radioactivity was measured in a Packard TRI-CARB 1900CA liquid scintillation analyzer from Packard Instrument Company, Inc.

[1] = In vitro transport assay, membrane vesicles; assay type: biochemical; conditions: HEK293/pcDNA3.1 vesicles
Protocol: Transport assays were carried out using the rapid filtration method as described in Chen et al. (2003) Cancer Res. 63:4048-54. […] Reactions were stopped by the addition of 3 mL of ice-cold stop solution (0.25 M sucrose, 100 mM NaCl, and 10 mM Tris-HCl, pH 7.4). During the rapid filtration step, samples were passed through 0.22 μm GVWP filters (Millipore) presoaked in the stop solution. The filters were washed three times with 3 mL of ice-cold stop solution. Radioactivity was measured by liquid scintillation counting.

HEK293/pcDNA3.1 = assay: MTT cytotoxicity/reversal assay (Example 1); assay type: cell-based; conditions: for fold reversal, vincristine: alone
Protocol: as §1, §2

ABCG2 [2] = target: T1, ABCG2 (Homo sapiens, UniProt Q9UNQ0); assay: Photoaffinity labeling with [^125I]-IAAP (Example 2); assay type: binding; set-up: endogenous in cells; host or cells: MCF7/FLV1000 (MCF-7/Flv1000) crude membranes; conditions: 10 μM
Protocol: The photoaffinity labeling of ABCB1 and ABCG2 with [^125I]-IAAP was conducted as described in Sauna et al., supra. The crude membranes from HIGH FIVE™ insect cells expressing ABCB1 and MCF7/FLV1000 cells expressing R482 ABCG2 (50 μg of protein) were incubated at room temperature with different concentrations of drugs in 50 mM Tris-HCl (pH 7.5) with [^125I]-IAAP (5-7 nM) for 5 min under subdued light. […] ABCB1 and ABCG2 were immunoprecipitated using BXP-21 antibodies as described in Shukla et al., supra. Both ABCB1 and ABCG2 samples were subjected to SDS-PAGE in a 7% Trisacetate NuPAGE gel, the gel was dried, and exposed to Bio-Max MR film (Eastman Kodak Co.) at −70° C. for 8 to 12 h. The radioactivity incorporated into the ABCB1 or ABCG2 band was quantified using the STORM 860 Phosphorlmager System and ImageQuaNT (Molecular Dynamics).

KB-3-1 cells = assay: [^3H]-paclitaxel accumulation (Example 2); assay type: cell-based, human; conditions: parental KB-3-1
Protocol: as §3

ABCB1 = target: T2, ABCB1 (Homo sapiens, UniProt P08183); assay: Vi-sensitive ATPase assay (Example 2); assay type: biochemical; conditions: read-out: concentration required for 50% stimulation of ATPase activity
T2 construct: made in house; host or cells: High Five insect cells (membrane vesicles / crude membranes)
Protocol: (§4) The vanadate (Vi)-sensitive ATPase activity of ABCB1 or ABCG2 in the membrane vesicles of HIGH FIVE™ insect cells was measured as described in Ambudkar et al., supra. The membrane vesicles (100 μg of protein/mL) were incubated in ATPase assay buffer (50 mM MES, pH 6.8, 50 mM KCl, 5 mM sodium azide, 2 mM EGTA, 2 mM dithiothreitol, 1 mM ouabain, and 10 mM MgCl2) with or without 0.3 mM vanadate at 37° C. for 5 min, and then incubated with different concentrations of drugs at 37° C. for 3 min. The ATPase reaction was […] by the addition of 5 mM Mg-ATP. After incubating at 37° C. for 20 min, the reactions were stopped by adding 0.1 mL of 5% SDS solution. The liberated inorganic phosphate was measured as described in Shukla et al. (2006) Biochemistry 45:8940-51.

ABCG2 [3] = target: T1, ABCG2; assay: Vi-sensitive ATPase assay (Example 2); assay type: biochemical; conditions: read-out: concentration required for 50% stimulation of ATPase activity
Protocol: as §4

HEK/MRP7 cells [4] = assay: [^3H]-paclitaxel accumulation (Example 4); assay type: cell-based; conditions: 5 μM, 2 h
Protocol: (§5) The effect of PDE5 inhibitors on the intracellular accumulation of paclitaxel in HEK293-pcDNA3.1 and HEK/MRP7 cells was measured using [^3H]-paclitaxel. […] For efflux studies, the cells were treated the same as in the drug accumulation study, and then washed three times with ice-cold PBS, and suspended in fresh medium with or without PDE5 inhibitors. Aliquots were evenly collected at various time points (0, 30, 60, and 120 min). Samples from both accumulation and efflux experiments were washed with ice-cold PBS three times and placed in scintillation fluid, and the radioactivity was measured in a Packard TRI-CARB® 1900CA liquid scintillation analyzer from Packard Instrument Company, Inc. (Downers Grove, Ill.).

[5] = system: any of the cell lines used; assay: MTT assay, sildenafil alone; assay type: cell-based; conditions: concentrations of up to 50 μM
Protocol: Cells in 96-well plates were preincubated with or without the reversal agents for 1 h and then different concentrations of chemotherapeutic drugs were added into designated wells. After 68 h of incubation, MTT solution (4 mg/mL) was added to each well, and the plate was further incubated for 4 h, allowing viable cells to change the yellow-colored MTT into dark-blue formazan crystals. Subsequently the medium was discarded, and […] of DMSO was added into each well to dissolve the formazan crystals. The absorbance was determined at 570 nm by an OPSYS MR Microplate Reader from DYNEX Technologies, Inc.

[6] = system: cells expressing wild-type or mutant ABCG2; assay: BODIPY-prazosin flow cytometric assay; assay type: cell-based; conditions: 50 μM; weaker than FTC at […]
Protocol: Flow cytometric assays were carried out as follows. […] Cells were then washed once in cold complete medium and then incubated for another 1 h at 37° C. in substrate-free media with or without the same described concentrations of the inhibitors to generate the efflux histograms. Subsequently, cells were washed twice with cold DPBS (Dulbecco's PBS) and placed on ice in a dark environment until ready for analysis. […] For all samples, at least 10,000 events were collected. Cell debris was eliminated by gating on forward versus side scatter, and dead cells were excluded on the basis of propidium iodide staining.

KB-C2 xenografts = assay: Mouse tumor xenografts; assay type: in vivo, mice; conditions: sildenafil 75 mg/kg p.o. + paclitaxel 18 mg/kg i.p. vs paclitaxel alone
Source text: Six-to-eight-week old male athymic NCR nude mice from Taconic (Hudson, N.Y.) were used for all xenografts. The mice were provided with sterilized food and water. The animal protocol was reviewed and approved by the Institutional Animal Care and Use Committee at St. John's University. […] When the tumors reached 0.5 cm, the mice were randomized into four groups, six mice per group: […] […] Mice were euthanized when the tumor weight exceeded 1 gram in the control group, and the tumors were excised and weighed.

[7] = system: MRP7 localization in HEK/MRP7 cells; assay: Immunofluorescence of MRP7; assay type: cell-based; conditions: 5 μM; 72 h
Protocol: HEK/MRP7 cells (1×10^4) were seeded in 24 well plates and cultured overnight. […] Cells were washed with PBS and fixed with 4% paraformaldehyde for 15 min at room temperature and then rinsed with PBS three times. Nonspecific reaction was blocked with 1% BSA for 1 h at room temperature. A polyclonal antibody D19 against MRP7 (1:200) was added and incubated overnight. […] DAPI was used for nuclear staining. Immunofluorescent images were taken with an inverted microscope (model IX70; Olympus, Center Valley, Pa.) with IX-FLA fluorescence and CCD camera.

[8] = system: KB-C2 and KB-V1 cells (ABCB1); assay: [^3H]-paclitaxel accumulation (Example 2); assay type: cell-based, human; conditions: 10 μM
Protocol: as §3, with “Cells in 24-well plates were preincubated with or without the reversal agents for 1 h at 37° C., then incubated with 0.1 μM [^3H]-paclitaxel or 0.2 μM [^3H]-mitoxantrone for 2 h in the presence or absence of the reversal agents at 37° C. After” for “After”

HEK/MRP7 cells [9] = assay: [^3H]-paclitaxel efflux (Example 4); assay type: cell-based; conditions: 5 μM PDE5 inhibitor
Protocol: as §5

[10] = system: ABCG2-overexpressing cell lines; assay: [^3H]-mitoxantrone accumulation; assay type: cell-based; conditions: 10 or 50 μM
Protocol: as §3, with “Cells in 24-well plates were preincubated with or without the reversal agents for 1 h at 37° C., then incubated with 0.1 μM [^3H]-paclitaxel or 0.2 μM [^3H]-mitoxantrone for 2 h in the presence or absence of the reversal agents at 37° C. After” for “After”

HEK/MRP1 (ABCC1) = assay: MTT cytotoxicity/reversal assay (Example 1); assay type: cell-based; conditions: alone
Protocol: (§6) The KB-C2 and KB-3-1 were kindly provided by Dr. Akiyama (Kagoshima University, Japan). […] Similarly, the HEK/MRP1 (ABCC1) and HEK/ABCB1 cells were generated by transfecting the HEK293 cells with either the MRP1 expression vector or the ABCB1 expression vector. All of the cell lines were grown in Dulbecco's modified Eagle's medium (DMEM) supplemented with 10% bovine serum, 100 units/ml penicillin, and […] streptomycin in a humidified incubator containing 5% CO2 at 37° C.
as §2

[11] = MTT cytotoxicity/reversal assay (Example 1); assay type: cell-based; conditions: human; HEK/MRP1; alone; read-out: IC50 of vincristine
Protocol: as §6, §2

HEK/ABCB1 (ABCB1) = assay: MTT cytotoxicity/reversal assay (Example 1); conditions: HEK/ABCB1; alone
Protocol: as §6, §2

[12] = MTT cytotoxicity/reversal assay (Example 1); conditions: human
Protocol: as §6, §2

T1 sequence (Q9UNQ0 whole entry): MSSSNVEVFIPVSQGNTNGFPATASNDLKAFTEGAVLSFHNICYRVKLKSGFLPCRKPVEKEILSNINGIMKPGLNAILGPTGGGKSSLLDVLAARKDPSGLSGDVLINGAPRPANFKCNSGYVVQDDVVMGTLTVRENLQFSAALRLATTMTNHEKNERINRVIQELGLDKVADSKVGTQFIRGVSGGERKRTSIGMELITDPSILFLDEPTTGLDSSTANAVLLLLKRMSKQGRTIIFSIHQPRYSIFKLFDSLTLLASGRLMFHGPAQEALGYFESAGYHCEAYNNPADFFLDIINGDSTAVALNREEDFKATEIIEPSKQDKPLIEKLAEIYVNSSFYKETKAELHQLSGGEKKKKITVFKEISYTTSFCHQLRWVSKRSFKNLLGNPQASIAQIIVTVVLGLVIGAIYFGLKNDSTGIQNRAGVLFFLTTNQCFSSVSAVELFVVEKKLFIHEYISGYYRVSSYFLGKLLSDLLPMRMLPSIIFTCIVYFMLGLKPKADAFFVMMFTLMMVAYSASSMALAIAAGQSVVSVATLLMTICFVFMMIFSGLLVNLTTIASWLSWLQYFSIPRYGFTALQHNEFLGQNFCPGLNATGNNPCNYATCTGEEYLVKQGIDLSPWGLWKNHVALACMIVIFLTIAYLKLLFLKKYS
T2 sequence (P08183 whole entry): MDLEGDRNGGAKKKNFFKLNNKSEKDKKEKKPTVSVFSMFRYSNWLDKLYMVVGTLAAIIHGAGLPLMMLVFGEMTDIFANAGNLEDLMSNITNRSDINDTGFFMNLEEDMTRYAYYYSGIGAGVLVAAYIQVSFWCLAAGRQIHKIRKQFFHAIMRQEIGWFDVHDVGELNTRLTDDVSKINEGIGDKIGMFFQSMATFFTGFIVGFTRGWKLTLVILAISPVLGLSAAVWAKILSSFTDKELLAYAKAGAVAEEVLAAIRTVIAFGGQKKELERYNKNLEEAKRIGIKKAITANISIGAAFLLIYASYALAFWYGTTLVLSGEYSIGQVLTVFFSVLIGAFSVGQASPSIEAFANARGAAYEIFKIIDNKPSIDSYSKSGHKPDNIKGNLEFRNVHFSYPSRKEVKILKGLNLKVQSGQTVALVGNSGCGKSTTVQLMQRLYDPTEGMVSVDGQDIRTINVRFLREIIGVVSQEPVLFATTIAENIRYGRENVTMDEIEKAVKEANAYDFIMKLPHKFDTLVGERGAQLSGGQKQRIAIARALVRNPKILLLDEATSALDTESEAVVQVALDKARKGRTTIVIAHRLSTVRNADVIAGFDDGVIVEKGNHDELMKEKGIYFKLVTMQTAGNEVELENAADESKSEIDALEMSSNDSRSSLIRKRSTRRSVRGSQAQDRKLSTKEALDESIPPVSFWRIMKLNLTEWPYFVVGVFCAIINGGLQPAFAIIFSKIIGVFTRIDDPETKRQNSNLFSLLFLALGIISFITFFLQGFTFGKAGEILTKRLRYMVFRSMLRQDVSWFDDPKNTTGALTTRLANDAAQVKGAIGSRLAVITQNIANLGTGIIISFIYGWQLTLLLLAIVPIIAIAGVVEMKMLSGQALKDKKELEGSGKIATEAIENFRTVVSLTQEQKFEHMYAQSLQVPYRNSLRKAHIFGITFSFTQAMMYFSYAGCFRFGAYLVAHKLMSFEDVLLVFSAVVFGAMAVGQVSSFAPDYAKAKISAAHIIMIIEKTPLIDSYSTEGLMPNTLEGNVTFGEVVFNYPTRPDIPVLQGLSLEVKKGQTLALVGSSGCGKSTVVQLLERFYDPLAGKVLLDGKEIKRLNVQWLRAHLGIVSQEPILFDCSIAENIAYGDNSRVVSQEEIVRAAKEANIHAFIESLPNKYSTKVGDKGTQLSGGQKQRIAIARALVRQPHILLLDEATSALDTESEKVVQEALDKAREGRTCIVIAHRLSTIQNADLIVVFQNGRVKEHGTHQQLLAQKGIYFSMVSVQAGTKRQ

With `COc1ccc2c3c([nH]c2c1)[C@H](C=C(C)C)N1C(=O)[C@@H]2CCCN2C(=O)[C@@H]1C3` [FTC, Fumitremorgin C] the “fold reversal, SN-38” value (ABCG2-482-R2 (ABCG2)) was “(3.84)”, the “intracellular levels of [^3H]-mitoxantrone” value (parental cells) was “Neither sildenafil nor FTC affected the intracellular levels” and the “uptake rates of methotrexate and E217βG” value [1] was “moderately decreased the uptake rates”. For the same compound, the “fold reversal, SN-38” value (HEK293/pcDNA3.1; HEK293/pcDNA3.1, +10 μM reversal agent) was “(1.13)” and the “inhibition of [^125I]-IAAP photolabeling” value (ABCG2 [2]) was “about 40%”.
In the case of `CCCc1nn(C)c2c(=O)nc(-c3cc(S(=O)(=O)N4CCN(C)CC4)ccc3OCC)[nH]c12` [Sildenafil, sildenafil], the “intracellular levels of [^3H]-paclitaxel” value (KB-3-1 cells) is reported as “Neither sildenafil nor verapamil altered the intracellular levels”, the EC50 (ABCB1) is reported as 5 to 10 µM and the EC50 (ABCG2 [3]) is reported as 0.25 to 0.5 µM. For the same compound, the “intracellular levels of [^3H]-mitoxantrone” value (parental cells) was “Neither sildenafil nor FTC affected the intracellular levels”, the “increase of intracellular accumulation of [^3H]-paclitaxel” value (HEK/MRP7 cells [4]) was 3.3 fold and the “growth inhibition by sildenafil alone” value [5] was “did not inhibit the growth of any of the cell lines used”. The “accumulation of BODIPY-prazosin” value [6] was “enhanced the accumulation of BODIPY-prazosin”, the “tumor weight and volume” value (KB-C2 xenografts) was “significant reduction in tumor weight and volume” and the “MRP7 protein localization in plasma membranes” value [7] was “no alteration of MRP7 protein localization”. The “intracellular level of [^3H]-paclitaxel” value [8] was “significantly increased the intracellular level”, the “percentage of intracellular [^3H]-paclitaxel” value (“percentage of intracellular” for short) (HEK/MRP7 cells [9]; 30 min) was 90.62% and the “percentage of intracellular” value (HEK/MRP7 cells [9]; 60 min) was 82.14%. The “percentage of intracellular” value (HEK/MRP7 cells [9]; 120 min) was 62.35% and the “intracellular [^3H]-mitoxantrone levels” value [10] was “elevated intracellular [^3H]-mitoxantrone levels”.
For `COc1ccc(CCN(C)CCCC(C#N)(c2ccc(OC)c(OC)c2)C(C)C)cc1OC` (centres unmarked) [Verapamil, verapamil], the “intracellular levels of [^3H]-paclitaxel” value (KB-3-1 cells) was “Neither sildenafil nor verapamil altered the intracellular levels”.
With `CC[C@]1(O)C[C@H]2CN(CCc3c([nH]c4ccccc34)[C@@](C(=O)OC)(c3cc4c(cc3OC)N(C=O)[C@H]3[C@@](O)(C(=O)OC)[C@H](OC(C)=O)[C@]5(CC)C=CCN6CC[C@]43[C@@H]65)C2)C1` [Vincristine, vincristine] the “fold reversal, vincristine” value (HEK/MRP1 (ABCC1)) was “(1.00)”, the IC50 at 68 h [11] was 0.0106 ± 0.0022 µM and the “fold reversal, vincristine” value (HEK/ABCB1 (ABCB1)) was “(1.00)”. For the same compound, the IC50 at 68 h [12] was 170 ± 12.9 µM, the “fold reversal, vincristine” value (HEK293/pcDNA3.1; HEK293/pcDNA3.1 (Table 6)) was “(1.00)” and the “fold reversal, vincristine” value (HEK293/pcDNA3.1; HEK293/pcDNA3.1) was “(1.00)”.
